Results reported in patent publication US20140011799A1 (Bristol-Myers Squibb Company, priority 2012, published 2014).

Biological target: T1, Endothelial lipase (EL) (Homo sapiens, UniProt Q9Y5X9)
T1 construct: HT-1080 cells that were transformed using RAGE technology (Athersys) to overexpress endogenous EL; endogenous in cells; conditioned medium used
T1 sequence (Q9Y5X9 21-500): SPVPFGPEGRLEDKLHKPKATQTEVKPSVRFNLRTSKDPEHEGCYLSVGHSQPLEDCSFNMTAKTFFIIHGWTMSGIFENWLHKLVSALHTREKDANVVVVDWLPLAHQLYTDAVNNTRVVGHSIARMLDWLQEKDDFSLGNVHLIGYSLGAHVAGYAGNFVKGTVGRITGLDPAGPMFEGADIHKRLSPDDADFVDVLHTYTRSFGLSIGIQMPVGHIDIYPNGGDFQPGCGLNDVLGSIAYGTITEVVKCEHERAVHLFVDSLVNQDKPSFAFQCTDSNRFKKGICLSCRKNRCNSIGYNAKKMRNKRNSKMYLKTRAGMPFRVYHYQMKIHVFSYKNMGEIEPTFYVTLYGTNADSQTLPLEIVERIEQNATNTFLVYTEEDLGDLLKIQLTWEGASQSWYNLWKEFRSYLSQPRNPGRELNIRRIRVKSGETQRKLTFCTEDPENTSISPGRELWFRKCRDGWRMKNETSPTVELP
Assay: Endothelial lipase (EL) enzymatic assay, fluorescent substrate A10070 in DMPG vesicles
Assay type: biochemical
Conditions: EL from conditioned media of HT-1080 cells; compound preincubated 30 min at 37° C; read-out: EL IC50
Protocol: Endothelial lipase (EL) and hepatic lipase (HL) activities were measured using a fluorescent substrate, A10070, (Invitrogen, CA) doped into an artificial vesicle containing DMPG (Avanti Polar Lipids) as the excipient. Vesicles were prepared by combining 571 μL of 29 mM DMPG in a 1:1 mixture of MeOH and CHCl3 with 2000 μL of 1 mM A10070 in a 1:1 mixture of MeOH and CHCl3. The mixture was dried under nitrogen in multiple vials then resuspended in 20 mL total volume of 50 mM HEPES pH 8.0 buffer containing 50 mM NaCl and 0.2 mM EDTA. The sample was allowed to sit at room temperature for 15 min and then was sonicated 3×4 mins on ice with a Branson Sonicator using duty cycle 1. This preparation provides vesicles with a mole fraction of 0.11 for the FRET substrate.
The enzymatic assay was measured using 384-well white Optiplates. Each well contained 20 μL of assay buffer (50 mM HEPES pH 8.0, 50 mM NaCl and 1 mM CaCl2) and 0.25 μL of a DMSO solution containing a compound of interest. EL or HL (10 μL) was added and allowed to incubate with the compound for 30 min at 37° C. The source of EL was conditioned media obtained from HT-1080 cells that were transformed using RAGE technology (Athersys) to overexpress endogenous EL, and HL was partially purified from conditioned media obtained from COS cells overexpressing HL. The reaction was started by the addition of 10 μL of a 1:10 dilution of vesicles. The final total reaction volume was […]. The reaction rates were measured on a Gemini plate reader with an excitation wavelength of 490 nm and an emission wavelength of 530 nm. Readings were taken over a period of 60 minutes, and the slope between 300 and 900 secs of the readout was used to calculate the rate of the reaction.

| Structure (SMILES) | IC50 [µM] |
| --- | --- |
| NS(=O)(=O)NCc1nnc(C(c2nc3ccc(-c4ccccc4)cc3s2)S(=O)(=O)CCCC(F)(F)F)o1 (stereo not shown) [Example 63, N-[(5-{(6-phenyl-1,3-benzothiazol-2-yl) [(4,4,4-trifluorobutyl)sulfonyl]methyl}-1,3,4-oxadiazol-2-yl)methyl] sulfuric diamide] | < 0.01 |
| NS(=O)(=O)NCc1nnc(C(c2nc3ccc(-c4ccccc4)cc3s2)S(=O)(=O)Cc2cccc(C(F)(F)F)c2)o1 (stereo not shown) [Example 62, N-((5-(((3-(trifluoromethyl)benzyl)sulfonyl) (6-phenyl-1,3-benzothiazol-2-yl)methyl)-1,3,4-oxadiazol-2-yl)methyl)sulfamide] | < 0.01 |
| NS(=O)(=O)NCc1nnc(C(c2nc3ccc(-c4ccccc4)cc3s2)S(=O)(=O)C2CC2)o1 (stereo not shown) [Example 74, N-({5-[(cyclopropylsulfonyl) (6-phenyl-1,3-benzothiazol-2-yl)methyl]-1,3,4-oxadiazol-2-yl}methyl) sulfuric diamide] | < 0.01 |
| NS(=O)(=O)NCc1nnc(C(c2nc3ccc(-c4ccccc4)cc3s2)S(=O)(=O)Cc2ccc(F)cc2)o1 (stereo not shown) [Example 69, N-((5-(((4-fluorobenzyl)sulfonyl)(6-phenyl-1,3-benzothiazol-2-yl)methyl)-1,3,4-oxadiazol-2-yl)methyl)sulfamide] | < 0.01 |
| CS(=O)(=O)C(c1nnc(CS(=O)(=O)O)o1)c1nc2ccc(-c3ccccc3)cc2s1 (stereo not shown) [Example 28, (5-((methylsulfonyl) (6-phenyl-1,3-benzothiazol-2-yl)methyl)-1,3,4-oxadiazol-2-yl) methanesulfonic acid] | < 0.01 |
| NS(=O)(=O)NCc1nnc(C(c2nc3ccc(-c4ccccc4)cc3s2)S(=O)(=O)Cc2cccc(Br)c2)o1 (stereo not shown) [Example 57] | < 0.01 |
| NS(=O)(=O)NCc1nnc(C(c2nc3ccc(-c4ccccc4)cc3s2)S(=O)(=O)Cc2cccc(Cl)c2)o1 (stereo not shown) [Example 73, N-((5-(((3-chlorobenzyl)sulfonyl)(6-phenyl-1,3-benzothiazol-2-yl)methyl)-1,3,4-oxadiazol-2-yl)methyl)sulfamide] | < 0.01 |
| NS(=O)(=O)NCc1nnc(C(c2nc3ccc(-c4ccccc4)cc3s2)S(=O)(=O)Cc2cccc(F)c2)o1 (stereo not shown) [Example 56, N-((5-(((3-fluorobenzyl)sulfonyl)(6-phenyl-1,3-benzothiazol-2-yl)methyl)-1,3,4-oxadiazol-2-yl)methyl)sulfamide] | < 0.01 |
| NS(=O)(=O)NCc1nnc(C(c2nc3ccc(-c4ccccc4)cc3s2)S(=O)(=O)Cc2ccc(Cl)c(Cl)c2)o1 (stereo not shown) [Example 60, N-((5-(((3,4-chlorobenzyl)sulfonyl)(6-phenyl-1,3-benzothiazol-2-yl)methyl)-1,3,4-oxadiazol-2-yl)methyl)sulfamide] | < 0.01 |
| NS(=O)(=O)NCc1nnc(C(c2nc3ccc(-c4ccc(Cl)cc4)cc3s2)S(=O)(=O)Cc2ccccc2)o1 (stereo not shown) [Example 126, N-((5-((benzylsulfonyl)(6-(4-chlorophenyl)-1,3-benzothiazol-2-yl)methyl)-1,3,4-oxadiazol-2-yl)methyl) sulfamide] | < 0.01 |
| CC(C)C(=O)NCc1nnc(C(c2nc3ccc(-c4ccccc4)cc3s2)S(C)(=O)=O)o1 (stereo not shown) [Example 88, N-((5-((Methylsulfonyl)(6-phenylbenzo[d]thiazol-2-yl)methyl)-1,3,4-oxadiazol-2-yl)methyl)isobutyramide] | 0.195 |
| Cc1cccc(CS(=O)(=O)C(c2nnc(CNS(N)(=O)=O)o2)c2nc3ccc(-c4ccccc4)cc3s2)c1 (stereo not shown) [Example 64, N-((5-(((3-methylbenzyl)sulfonyl)(6-phenyl-1,3-benzothiazol-2-yl)methyl)-1,3,4-oxadiazol-2-yl)methyl)sulfamide] | < 0.01 |
| CC(C)(C)OC(=O)N(Cc1nnc(C(c2nc3ccc(-c4ccccc4)cc3s2)S(C)(=O)=O)o1)S(C)(=O)=O (stereo not shown) [Example 84, tert-Butyl methylsulfonyl((5-((methylsulfonyl)(6-phenylbenzo[d]thiazol-2-yl)methyl)-1,3,4-oxadiazol-2-yl)methyl)carbamate] | < 0.01 |
| CS(=O)(=O)C(c1nnc(CS(N)(=O)=O)o1)c1nc2ccc(-c3ccccc3)cc2s1 (stereo not shown) [Example 89, (5-((Methylsulfonyl)(6-phenylbenzo[d]thiazol-2-yl)methyl)-1,3,4-oxadiazol-2-yl)methanesulfonamide] | < 0.01 |
| CCCS(=O)(=O)C(c1nnc(CNS(N)(=O)=O)o1)c1nc2ccc(-c3ccccc3)cc2s1 (stereo not shown) [Example 66, N-({5-[(propylsulfonyl) (6-phenyl-1,3-benzothiazol-2-yl)methyl]-1,3,4-oxadiazol-2-yl}methyl) sulfuric diamide] | < 0.01 |
| CC(C)(C)OC(=O)N1CC(S(=O)(=O)C(c2nnc(CS(N)(=O)=O)o2)c2nc3ccc(-c4ccccc4)cc3s2)C1 (stereo not shown) [Example 38, tert-butyl 3-(((6-phenylbenzo[d]thiazol-2-yl)(5-(sulfamoylmethyl)-1,3,4-oxadiazol-2-yl)methyl)sulfonyl)azetidine-1-carboxylate] | < 0.01 |
| O=S(=O)(CCC(F)(F)F)NS(=O)(=O)Cc1nnc(C(c2nc3ccc(-c4ccccc4)cc3s2)S(=O)(=O)CCC(F)(F)F)o1 (stereo not shown) [Example 36, 3,3,3-trifluoro-N-(((5-((6-phenylbenzo[d]thiazol-2-yl)((3,3,3-trifluoropropyl)sulfonyl)methyl)-1,3,4-oxadiazol-2-yl)methyl)sulfonyl)propane-1-sulfonamide] | < 0.01 |
| NS(=O)(=O)NCc1nnc(C(c2nc3ccc(-c4ccccc4)cc3s2)S(=O)(=O)CCN2C(=O)c3ccccc3C2=O)o1 (stereo not shown) [Example 52, N-[(5-{(6-phenyl-1,3-benzothiazol-2-yl) ([2-(1,3-dioxo-1,3-dihydro-2H-isoindol-2-yl)ethyl]sulfonyl)methyl}-1,3,4-oxadiazol-2-yl)methyl]sulfuric diamide] | < 0.01 |
| CS(=O)(=O)C(c1nnc(CC2NC(=O)NC2=O)o1)c1nc2ccc(-c3ccccc3)cc2s1 (stereo not shown) [Example 30, 5-((5-((methylsulfonyl) (6-phenyl-1,3-benzothiazol-2-yl)methyl)-1,3,4-oxadiazol-2-yl)methyl)-2,4-imidazolidinedione] | 0.016 |
| CN(C)C(=O)Cc1nnc(C(c2nc3ccc(-c4ccccc4)cc3s2)S(=O)(=O)Cc2ccccc2)o1 (stereo not shown) [Example 39, 2-(5-((benzylsulfonyl)(6-phenylbenzo[d]thiazol-2-yl)methyl)-1,3,4-oxadiazol-2-yl)-N,N-dimethylacetamide] | 0.19 |
| CS(=O)(=O)C(c1nnc(CC2SC(=O)NC2=O)o1)c1nc2ccc(-c3ccc(F)nc3)cc2s1 (stereo not shown) [Example 3, 5-((5-((6-(6-fluoro-3-pyridinyl)-1,3-benzothiazol-2-yl)(methylsulfonyl)methyl)-1,3,4-oxadiazol-2-yl)methyl)-1,3-thiazolidine-2,4-dione] | < 0.01 |
| CN1CCN(C(=O)c2ccc(-c3ccc4nc(C(c5nnc(CNS(N)(=O)=O)o5)S(C)(=O)=O)sc4c3)cc2)CC1 (stereo not shown) [Example 80, N-((5-((6-(4-((4-methyl-1-piperazinyl)carbonyl)phenyl)-1,3-benzothiazol-2-yl)(methylsulfonyl)methyl)-1,3,4-oxadiazol-2-yl)methyl)sulfamide] | 0.057 |
| O=C(NCCS(=O)(=O)C(c1nnc(CC2SC(=O)NC2=O)o1)c1nc2c(F)cc(-c3ccccc3)cc2s1)OCc1ccccc1 (stereo not shown) [Example 92, benzyl (2-(((5-((2,4-dioxothiazolidin-5-yl)methyl)-1,3,4-oxadiazol-2-yl)(4-fluoro-6-phenyl-benzo[d]thiazol-2-yl)methyl)sulfonyl)ethyl) carbamate] | < 0.01 |
| Cc1ccccc1CS(=O)(=O)C(c1nnc(CNS(N)(=O)=O)o1)c1nc2ccc(-c3ccccc3)cc2s1 (stereo not shown) [Example 70, N-((5-(((2-methylbenzyl)sulfonyl)(6-phenyl-1,3-benzothiazol-2-yl)methyl)-1,3,4-oxadiazol-2-yl)methyl) sulfamide] | < 0.01 |
| CC1(Cc2nnc(C(c3nc4ccc(-c5ccc(F)nc5)cc4s3)S(C)(=O)=O)o2)SC(=O)NC1=O (single isomer, unassigned; isomer b) [Example 18, 5-((5-((6-(6-fluoropyridin-3-yl)benzo[d]thiazol-2-yl)(methylsulfonyl)methyl)-1,3,4-oxadiazol-2-yl)methyl)-5-methylthiazolidine-2,4-dione (Isomer B)] | < 0.01 |
